What was measured:
[1] = tested on: NCI H358 subcutaneous xenograft; experiment: Human lung cancer xenograft model, VEGFR TKI combination; type: in vivo, female nude mice; details: AZD2171 alone 3 mg/kg QD oral, 17 days dosing; p<0.001
Procedure: The in vivo efficacy of MCT4 inhibitors has been tested in human xenograft models. The NSCLC cell line NCI H358 can be grown as a subcutaneous xenograft in female nude mice and tumour volume calculated from bilateral caliper measurements. For efficacy studies three million NCI H358 cells were inoculated sub-cutaneously onto the left flank of the animal in a volume of 0.1 ml serum free media (RPMI) and matrigel. Animals were assigned into treatment groups 14 days after cell implantation and received either AZD2171 (3 mg/kg QD) (Wedge et al., (2005) Cancer Res. 65:4389-4400), a compound of Formula (I) (100 mg/kg BID) or the combination of both by oral gavage. A vehicle control of 0.5% hydroxy propyl methyl cellulose/0.1% Tween 80 was dosed twice daily given orally. Dosing was continued for 17 days and tumour volume, body weight and tumour condition were recorded twice weekly for the duration of the study.

MCT1 = molecular target: T1, MCT1 (Homo sapiens, UniProt P53985); experiment: Assay (c): FLIPR BCECF lactate influx in K562 cells; type: cell-based; details: mean of at least three repeats, read-out: MCT1 FLIPR pIC50 (K562) (converted)
T1 construct: a human erythroleukemia line predominantly expressing MCT1, a small amount of MCT2 and no MCT4; host or cells: K562
T1 sequence (P53985 1-500): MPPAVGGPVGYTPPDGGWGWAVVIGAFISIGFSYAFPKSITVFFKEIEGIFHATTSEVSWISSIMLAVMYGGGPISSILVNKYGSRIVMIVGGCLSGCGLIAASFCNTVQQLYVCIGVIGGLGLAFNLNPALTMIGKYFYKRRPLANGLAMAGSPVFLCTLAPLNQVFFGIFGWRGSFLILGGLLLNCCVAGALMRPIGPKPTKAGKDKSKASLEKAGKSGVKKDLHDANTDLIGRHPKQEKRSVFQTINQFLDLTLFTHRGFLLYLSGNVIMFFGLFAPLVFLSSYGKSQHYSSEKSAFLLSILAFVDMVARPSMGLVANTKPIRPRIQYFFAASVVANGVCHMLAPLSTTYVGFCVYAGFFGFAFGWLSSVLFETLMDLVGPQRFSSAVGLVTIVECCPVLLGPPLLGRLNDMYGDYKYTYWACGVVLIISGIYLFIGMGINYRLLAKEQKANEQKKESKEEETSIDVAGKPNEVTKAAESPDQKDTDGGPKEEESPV
Procedure: (§1) Cells were loaded with the pH sensitive dye BCECFAM(Invitrogen #B11150) before being washed to remove excess dye and seeded into the assay plates—directly onto the test compound—at a density of 15,000 cells/well (NCI—H358) or 30,000 cells/well (K562), in 30 μl HBSS with 1 mM [final] […] Assay plates were lidded and spun in a plate centrifuge at 170 g for 1 minute. Plates were then wrapped in foil and incubated in the dark for 1 hour at room temperature.
(§2) Following incubation with test compound, 10 μl of 25 mM Sodium-L-Lactate (Sigma #L7022) made up in HBSS with 1 mM [final] […] This addition was performed directly on the FLIPR Tetra platform (Molecular Devices) as part of a real-time kinetic read protocol. […] A percentage change from base-line was calculated for each test well and values normalised to control wells—treated with either DMSO (maximum assay signal) or chemistry related to that described in this patent (minimum assay signal)—before fitting concentration response curves to determine an IC50 value.

MCT4 [2] = molecular target: T2, MCT4 (Homo sapiens, UniProt O15427); experiment: Assay (a): lactate efflux from SK-Br-3 cells (lactate in media, 4 h); type: cell-based; parameters: a natively glycolytic human breast adenocarcinoma line predominantly expressing MCT4; host or cells: SK-Br-3; details: mean of at least three repeats (Example 32, marked *, two repeats), read-out: MCT4 lactate efflux pIC50 (SKBR3) (converted)
T2 sequence (O15427 1-465): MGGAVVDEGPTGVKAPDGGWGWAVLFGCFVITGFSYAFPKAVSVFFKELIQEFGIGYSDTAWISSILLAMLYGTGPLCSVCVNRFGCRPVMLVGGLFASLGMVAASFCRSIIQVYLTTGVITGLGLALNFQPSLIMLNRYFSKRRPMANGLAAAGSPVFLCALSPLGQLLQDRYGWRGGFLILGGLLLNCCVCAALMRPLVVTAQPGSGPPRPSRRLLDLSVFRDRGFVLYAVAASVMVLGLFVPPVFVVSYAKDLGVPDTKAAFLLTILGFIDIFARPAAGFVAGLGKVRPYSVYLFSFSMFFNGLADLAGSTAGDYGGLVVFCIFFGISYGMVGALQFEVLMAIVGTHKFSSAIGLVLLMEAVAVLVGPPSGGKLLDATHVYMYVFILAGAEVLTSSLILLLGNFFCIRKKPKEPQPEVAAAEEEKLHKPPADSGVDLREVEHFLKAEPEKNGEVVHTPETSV
Procedure: Assay plates were lidded and incubated for 4 hours at 37° C. and 5% CO2.

MCT4 [3] = molecular target: T2, MCT4; experiment: cell-based
Procedure: as §1, §2

MCT4 [4] = molecular target: T2, MCT4; experiment: Assay (d): FLIPR BCECF lactate influx in INS-1 MCT4 cells; type: cell-based, rat; parameters: expressed in transfected cells; details: INS-1 cells stably expressing human MCT4; mean of at least three repeats; read-out: MCT4 FLIPR pIC50 (INS-1) (converted)
Procedure: INS-1 MCT4 cells were generated through transfection of the parental cell background with the following DNA sequence, inserted into a pcDNA3.1 (ThermoFisher #V79020) mammalian expression vector:
The resultant cell pool was continually cultured at 37° C. and 5% CO2 under antibiotic selection in RPMI (Sigma #R0883) medium containing 1% L glutamine (Sigma #G7513), 10% FBS (Sigma #F7524), 10 mM [final] […] An individual clone was selected and expanded before being cryopreserved in a number of individual vials for continued use. Prior to testing in the biological assay, an individual INS-1 MCT4 cryovial was defrosted and continually passaged over a number of weeks—in the Geneticin selection media described previously—to obtain the requesite cell number.

Row | SMILES | IC50 (MCT1) [nM] | IC50 (MCT4 [2]) [nM] | IC50 (MCT4 [3]) [nM] | IC50 (MCT4 [4]) [nM] | tumour regression compared to the vehicle group [1] [%]
1 | COc1cc2c(Oc3ccc4[nH]c(C)cc4c3F)ncnc2cc1OCCCN1CCCC1 [AZD2171, reference compound] |  |  |  |  | 33
2 | Cc1nc2nc(C)c(O[C@@H]3CCN(c4ccc(-c5ccc(CN6C7CCC6CN(C)C7)nn5)cc4)C3)c(C)n2n1 [Example 66, 2,5,7-trimethyl-6-(((3R)-1-(4-(6-((3-methyl-3,8-diazabicyclo[3.2.1]octan-8-yl)methyl)pyridazin-3-yl)phenyl)pyrrolidin-3-yl)oxy)-[1,2,4]triazolo[1,5-a]pyrimidine] | > 25100 | 2 | 50.1 | 25.1 | 
3 | Cc1nc2nc(C)c(O[C@@H]3CCN(c4ccc(-c5ccc(CN6CCCCCC6)nn5)cc4)C3)c(C)n2n1 [Example 85, (R)-6-((1-(4-(6-(azepan-1-ylmethyl)pyridazin-3-yl)phenyl)pyrrolidin-3-yl)oxy)-2,5,7-trimethyl-[1,2,4]triazolo[1,5-a]pyrimidine] | > 25100 | 1.26 | 20 | 6.31 | 
4 | Cc1nc2nc(C)c(O[C@@H]3CCN(c4ccc(-c5ccc(CN6CCCCC6)nn5)cc4)C3)c(C)n2n1 [Example 64, (R)-2,5,7-trimethyl-6-((1-(4-(6-(piperidin-1-ylmethyl)pyridazin-3-yl)phenyl)pyrrolidin-3-yl)oxy)-[1,2,4]triazolo[1,5-a]pyrimidine] | > 25100 | 1.58 | 50.1 | 15.8 | 
5 | Cc1nc2nc(C)c(O[C@@H]3CCN(c4ccc(-c5ccc(CN6CCOCC6)nc5)cn4)C3)c(C)n2n1 [Example 75, (R)-4-((6′-(3-((2,5,7-trimethyl-[1,2,4]triazolo[1,5-a]pyrimidin-6-yl)oxy)pyrrolidin-1-yl)-[3,3′-bipyridin]-6-yl)methyl)morpholine] | > 25100 | 3.16 | 12.6 | 3.16 | 
6 | Cc1nc2nc(C)c(O[C@@H]3CCN(c4cnc(-c5ccc([C@@H](C)N6CCOCC6)cc5)cn4)C3)c(C)n2n1 (single isomer, unassigned) [Example 86] | > 25100 | 2.51 | 12.6 | 3.16 | 
7 | COCCN1CCN(Cc2ccc(-c3ccc(N4CC[C@@H](Oc5c(C)nc6nc(C)nn6c5C)C4)cc3)nn2)CC1 [Example 73, (R)-6-((1-(4-(6-((4-(2-methoxyethyl)piperazin-1-yl)methyl)pyridazin-3-yl)phenyl)pyrrolidin-3-yl)oxy)-2,5,7-trimethyl-[1,2,4]triazolo[1,5-a]pyrimidine] | > 25100 | 3.16 | 50.1 | 31.6 | 
8 | Cc1nc2nc(C)c(O[C@@H]3CCN(c4ccc(-c5ccc(CN6CCN7CCC[C@H]7C6)nn5)cc4)C3)c(C)n2n1 [Example 68, 6-(((R)-1-(4-(6-(((S)-hexahydropyrrolo[1,2-a]pyrazin-2(1H)-yl)methyl)pyridazin-3-yl)phenyl)pyrrolidin-3-yl)oxy)-2,5,7-trimethyl-[1,2,4]triazolo[1,5-a]pyrimidine] | > 25100 | 3.16 | 100 |  | 
9 | Cc1nc2nc(C)c(O[C@@H]3CCN(c4ccc(-c5ccc(CN6CCN7CCC[C@@H]7C6)nn5)cc4)C3)c(C)n2n1 [Example 67, 6-(((R)-1-(4-(6-(((R)-hexahydropyrrolo[1,2-a]pyrazin-2(1H)-yl)methyl)pyridazin-3-yl)phenyl)pyrrolidin-3-yl)oxy)-2,5,7-trimethyl-[1,2,4]triazolo[1,5-a]pyrimidine] | > 25100 | 2 | 63.1 |  | 
10 | Cc1nc2nc(C)c(O[C@@H]3CCN(c4ccc(-c5cnc(CN6CCOCC6)nc5)cc4)C3)c(C)n2n1 [Example 69, (R)-4-((5-(4-(3-((2,5,7-trimethyl-[1,2,4]triazolo[1,5-a]pyrimidin-6-yl)oxy)pyrrolidin-1-yl)phenyl)pyrimidin-2-yl)methyl)morpholine] | > 25100 | 2 | 12.6 | 3.16 | 
11 | Cc1nc2nc(C)c(C[C@@H]3CCN(c4cnc(-c5ccc(CN6CCCC6)cn5)cn4)C3)c(C)n2n1 [Example 81, (R)-2,5,7-trimethyl-6-((1-(5-(5-(pyrrolidin-1-ylmethyl)pyridin-2-yl)pyrazin-2-yl)pyrrolidin-3-yl)methyl)-[1,2,4]triazolo[1,5-a]pyrimidine] | 5010 | 3.16 | 15.8 | 3.16 | 

The remaining compounds from weak to strong by IC50 (MCT4 [3]), led by results:

Row | IC50 (MCT1) [nM] | IC50 (MCT4 [2]) [nM] | IC50 (MCT4 [3]) [nM] | IC50 (MCT4 [4]) [nM] | SMILES | tumour regression compared to the vehicle group [1] [%]
12 | > 25100 | 1.26 | 12.6 | 3.98 | Cc1nc2nc(C)c(O[C@@H]3CCN(c4cnc(-c5ccc(C(C)N6CCOCC6)cc5)cn4)C3)c(C)n2n1 (single isomer, unassigned) [Example 87] | 
13 | > 25100 | 0.794 | 10 | 6.31 | COCCN1CCN(Cc2ccc(-c3cnc(N4CC[C@@H](Cc5c(C)nc6nc(C)nn6c5C)C4)cn3)cc2)CC1 [Example 42, (R)-6-((1-(5-(4-((4-(2-methoxyethyl)piperazin-1-yl)methyl)phenyl)pyrazin-2-yl)pyrrolidin-3-yl)methyl)-2,5,7-trimethyl-[1,2,4]triazolo[1,5-a]pyrimidine] | 
14 | > 25100 | 2 | 10 | 2 | Cc1nc2nc(C)c(O[C@@H]3CCN(c4ccc(-c5ccc(CN6CCOCC6)cn5)cn4)C3)c(C)n2n1 [Example 74, (R)-4-((6′-(3-((2,5,7-trimethyl-[1,2,4]triazolo[1,5-a]pyrimidin-6-yl)oxy)pyrrolidin-1-yl)-[2,3′-bipyridin]-5-yl)methyl)morpholine] | 
15 | > 25100 | 1 | 7.94 | 3.98 | Cc1nc2nc(C)c(O[C@@H]3CCN(c4ccc(-c5ccc(CN6CCCOCC6)nn5)cc4)C3)c(C)n2n1 [Example 84, (R)-4-((6-(4-(3-((2,5,7-trimethyl-[1,2,4]triazolo[1,5-a]pyrimidin-6-yl)oxy)pyrrolidin-1-yl)phenyl)pyridazin-3-yl)methyl)-1,4-oxazepane] | 
16 | 12600 | 0.398 | 7.94 | 5.01 | Cc1nc2nc(C)c(C[C@@H]3CCN(c4cnc(-c5ccc(CN6CCOCC6)cc5)cn4)C3)c(C)n2n1 [Example 60, (R)-4-(4-(5-(3-((2,5,7-trimethyl-[1,2,4]triazolo[1,5-a]pyrimidin-6-yl)methyl)pyrrolidin-1-yl)pyrazin-2-yl)benzyl)morpholine] | 
17 | > 25100 | 0.631 | 5.01 | 1.58 | Cc1nc2nc(C)c(O[C@@H]3CCN(c4ccc(-c5cnc(CN6CCOCC6)cn5)cc4)C3)c(C)n2n1 [Example 70, (R)-4-((5-(4-(3-((2,5,7-trimethyl-[1,2,4]triazolo[1,5-a]pyrimidin-6-yl)oxy)pyrrolidin-1-yl)phenyl)pyrazin-2-yl)methyl)morpholine] | 
